Laboratory results from patent US9988603B2, “Large scale generation of functional megakaryocytes and platelets from human embryonic stem cells under stromal-free conditions” (Stem Cell & Regenerative Medicine International, priority 2009, dated 2018).

B1: IL11: cytokine reported to enhance expansion and maturation of megakaryocytes (protein, UniProt P20809 22-199, looked up)
Interleukin-11: PGPPPGPPRVSPDPRAELDSTVLLTRSLLADTRQLAAQLRDKFPADGDHNLDSLPTLAMSAGALGALQLPGVLTRLRADLLSYLRHVQWLRRAGGSSLKTLEPELGTLQARLDRLLRRLQLLMSRLALPQPPPDPPAPPLAPPSSAWGGIRAAHAILGGLHLTLDWAVRGLLLLKTRL
B2: BMP4: previously reported megakaryocyte promoting factor (protein, UniProt P12644 293-408, looked up)
Bone morphogenetic protein 4: SPKHHSQRARKKNKNCRRHSLYVDFSDVGWNDWIVAPPGYQAFYCHGDCPFPLADHLNSTNHAIVQTLVNSVNSSIPKACCVPTELSAISMLYLDEYDKVVLKNYQEMVVEGCGCR

Experiments:
Assay type in all cases: cell-based, human
[1] = test system: CD41a+ megakaryocytes from hESC derived BCs; test: Megakaryocyte (MK) differentiation/expansion culture from hESC derived blast cells, CD41a+ cell count; conditions: for yields / expansion of CD41a+ megakaryocytes: serum-free Stemline II MK culture of day 6 to 8 BCs, factors compared to TPO and SCF only, 4 day liquid culture
Experimental: BCs from day 6 to 8 blast cultures were purified and plated (1 to 5×10^5/ml) in Stemline II media supplemented with 50 ng/ml TPO, 20 ng/ml SCF and other cytokines to induce BC differentiation toward MKs. Half of the MK culture media was replaced with fresh media every 2 or 3 days.
In order to further direct the differentiation of megakaryocytes, day 6 to day 8 BCs from methylcellulose semi-solid cultures were harvested and then resuspended in serum-free media, i.e., Stemline II supplemented with cytokines for MK culture. The cell count of CD41a+ cells was used as readout to determine the expansion megakaryocytes during the suspension culture, which was calculated by multiplying the percentage of CD41a+(FACS) and total live cell count (Trypan blue exclusion). […] A panel of cytokines and factors were also tested in order to achieve high purity and the total yield of megakaryocytes from BCs. These factors including IL9 and BMP4 were previously reported as megakaryocyte promoting factors in other systems^21:22.
Certain factors, however, did slightly increase the percentage of CD41+ cells (not shown).

[2] = test system: hESC derived blast cells (BCs); test: Blast culture, percentage of CD41a+ cells by FACS; conditions: for percentage of CD41a+ cells at the end of blast culture: TPO 100 ng/ml and SCF 50 ng/ml together, second phase of EB formation and blast colony growth
Experimental: The procedure for EB formation and BC generation were performed as previously reported^17:19. In brief, hESCs at 70% confluency were dissociated by 0.05% trypsin and plated in Ultra-Low dishes (Corning, N.Y.) with Stemline II (Sigma) medium supplemented with BMP-4, VEGF (50 ng/ml). Half of the medium was replaced after 48 hours with fresh medium containing the same cytokines plus bFGF 20 ng/ml, SCF, Flt3 ligand (FL) and Tpo (50 ng/ml each, R&D System). On day 4, EBs were collected and dissociated by 0.05% trypsin. Single-cell suspensions were obtained by passing the cells through 22-gauge needle and through a 40 μm cell strainer, collected by centrifugation, and resuspended in Stemline II media. Live cells were counted by trypan blue exclusion, and 1 to 2×10^5/ml were mixed with blast colony growth medium (BGM) as previously described, and plated in Ultra-Low dishes. Blast colonies were observed 3-4 days after plating, followed by rapid expansion.
Cells from blast cultures or megakaryocyte cultures are monitored routinely by flow cytometry analyses on FACS Caliber. Fluorochrome conjugated antibodies for lineage markers, CD41a, CD42a, CD42b and CD235a (BD Biosciences) were used to characterize the megakaryocyte and erythroid lineages. Antibodies were freshly prepared (1:100 dilution for CD42a and CD42b antibodies; 1:250 dilution for CD41a antibody; 1:2000 for CD235a antibody) in PBS with 5% new born calf serum. Typically 1 to 2×10^5 cells were used for antibody labeling. Cells were stained in 100 μl antibody cocktail for 1 hour on ice, then washed twice with buffer, and resuspended in 250 μl buffer supplemented with 1 μg/ml propidium iodide. To detect the expression level of HLA-ABC, platelets were incubated with a fluorescein isothiocyanate (FITC)-conjugated antihuman HLA-ABC antibody or FITC-conjugated mouse immunoglobulin G (IgG) as a control. The samples were then analyzed using a flow cytometer (FACSCalibur, Becton Dickinson), and data were analyzed using Cellquest or Flowjo software. Cell sorting was performed on BD FACS Aria system at UMASS Medical School Core Facility. […]

[3] = test system: platelet integrin receptor; test: Platelet spreading on immobilized fibrinogen and vWF; conditions: control plasma platelets and ES-PLTs on fibrinogen, stimulated with agonist
Experimental: Chamber slides with microtiter wells (Nalgen Nunc, Rochester, N.Y.) were coated with […] fibrinogen (Sigma) in 0.1M NaHCO3 (pH 8.3) at 4° C. overnight. Washed human peripheral platelets or hESC-platelets (1×10^7/mL) were allowed to adhere and spread on fibrinogen-coated wells at 37° C. for 90 minutes. In some samples, platelets were preincubated with an integrin antagonist, RGDS peptide, for 5 minutes before loading. In other samples, platelets were mixed with ADP (10 μM) or thrombin (1 U/ml) (Sigma-Aldrich, St Louis, Mo.), and immediately loaded on to fibrinogen-coated wells. […] Adherent platelets were viewed with an Olympus BX51 fluorescence microscope (MVI, Avon, Mass.) using a PlanApo lens at 100×/1.40 oil objective. […]
Integrin outside-in signaling functional property in ES-PLTs was further assessed by spreading assay on immobilized fibrinogen on glass slides. […]
Chamber slides with microtiter wells (Nalgen Nunc, Rochester, N.Y.) were coated with 100 μg/mL fibrinogen or vWF ([…]) (Sigma-Aldrich, St Louis, Mo.) in 0.1M NaHCO3 (pH 8.3) at 4° C. overnight. […] Adherent platelets were viewed with an Olympus BX51 fluorescence microscope using a PlanApo lens at 100×/1.40 oil objective. […]

hESC-PLTs = test: CD41a/CD42b expression on hESC-PLTs generated under feeder-free conditions (FACS); conditions: GM6001 100 μM during late stage of differentiation
Experimental: To examine whether functional platelets were generated under feeder-free conditions, the inventors examined CD41a/CD42b expression on hESC-derived platelets (hESC-PLTs) by FACS analyses. […] However, less than 5% of these hESC-PLTs were CD42b positive. […] Supplement of GM6001 (100 μM) during late stage of human ESC-PLTs differentiation increased CD41a and CD42b double positive hESC-PLTs to about 15%. The function of feeder-free generated hESC-PLTs was assessed by integrin dependent spreading assay on immobilized fibrinogen and vWF. Anti-human CD41a antibody and DAPI staining were used to identify platelets.
Hemangioblast/BC generation from hESC lines (HuES-3, H7 [WA07], MA01, and MA09) was performed as previously reported^17:20. BCs from day 6 to 8 cultures were purified and plated (1 to 5×10^5/ml) in Stemline II media supplemented with 50 ng/ml TPO, 20 ng/ml SCF and 20 ng/ml IL-11 (Peprotech) to induce BC differentiation toward MKs. Half of the MK culture media was replaced with fresh media every 2 or 3 days. […]
Cells from blast cultures or MK cultures are monitored routinely by flow cytometry analyses on FACSCalibur (Becton Dickinson) or Accuri C6 Cytometer (Accuri Cytometers). […] The samples were then analyzed with FACSCalibur, and data analyzed using Cellquest or Flowjo software. […] Cellular DNA content was analyzed on an Accuri C6 cytometer.

Molecule	yields / expansion of CD41a+ megakaryocytes [1]	further results
bFGF: growth factor tested in MK culture	slightly increased	–
SCF: cytokine in MK culture media	significantly increased	percentage of CD41a+ cells at the end of blast culture [2]: increased
IL 6: cytokine tested in MK culture	slightly increased	–
Nc1ncnc2c1ncn2[C@@H]1O[C@H](COP(=O)(O)OP(=O)(O)O)[C@@H](O)[C@H]1O [ADP]	–	lamellipodia and actin stress fiber formation [3]: enhanced
thrombin	–	lamellipodia and actin stress fiber formation [3]: enhanced
C[C@@H](N)[C@H]1CC[C@H](C(=O)Nc2ccncc2)CC1 [Y27632]	–	CD41+ cell count at the end of 4 day culture ([1]; 10 μM during 4 day MK culture): reduced; percentage of polyploid cells ([1]; 10 μM during 4 day MK culture): dramatically increased
IL9: previously reported megakaryocyte promoting factor	did not show obvious effects	–
VEGF	slightly increased	–
CNC(=O)[C@H](Cc1c[nH]c2ccccc12)NC(=O)[C@@H](CC(=O)NO)CC(C)C [GM6001]	–	CD41a and CD42b double positive hESC-PLTs (hESC-PLTs): about 15%
TPO: cytokine in MK culture media	not sufficient	percentage of CD41a+ cells at the end of blast culture [2]: increased
B1	slightly increased	ratio of CD41a+ cells in day 6 to 8 blast cultures ([2]; IL-11 20 ng/ml in BGM medium): further increased
B2	did not show obvious effects	–
